Assay results: the NIST ThermoML archive (doi:10.1021/je300678r)
Several values for one entry are separate records, joined by “and”; a condition that tells them apart may be missing. Equal values may be shown once. Numbers after ± are expanded uncertainties.

What was measured:
[1] = Liquid; for mass density: 101.33 kPa, Vibrating tube method; for vapor or sublimation pressure: Ebulliometric method (Recirculating still)
[2] = refractive index (Na D-line) (dimensionless); conditions: 101.33 kPa, Liquid, Standard Abbe refractometry
[3] = xn = mol fraction of the nth substance listed; conditions: 298.15 K, 101 kPa, Liquid, Vibrating tube method
[4] = refractive index (Na D-line) (dimensionless); xn = mol fraction of the nth substance listed; conditions: 298.15 K, 101 kPa, Liquid, Standard Abbe refractometry
[5] = excess molar enthalpy (molar enthalpy of mixing); xn = mol fraction of the nth substance listed; conditions: 298.15 K, 101 kPa, Liquid, Flow calorimetry

CCC(C)O (centres undefined) [butan-2-ol]
Conditions | mass density, 297.83 K [kg/m3] | refractive index, 297.83 K | refractive index, 298.15 K | vapor or sublimation pressure, 358.16 K [kPa] | vapor or sublimation pressure, 367.97 K | vapor or sublimation pressure, 372.43 K [kPa] | vapor or sublimation pressure, 372.71 K [kPa]
[1] | 802.7 ± 0.4 | – | – | 57.27 ± 0.29 | 84.94 ± 0.31 kPa and 85.16 ± 0.75 kPa | 100.62 ± 0.46 | 101.88 ± 0.46
[2] | – | 1.3951 ± 0.0003 | 1.39512 ± 0.00033 | – | – | – | –

CCCCC(CC)CO (centres undefined) [2-ethyl-1-hexanol] + CC(=O)CC(C)C
Conditions | excess molar enthalpy, [5] | mass density, [3] | refractive index, [4]
x2 = 0 | – | – | 1.42949 ± 0.00032
x2 = 0.0516 | – | – | 1.42806 ± 0.00032
x2 = 0.1009 | 0.55 ± 0.016 kJ/mol | 826.11 ± 0.34 kg/m3 | –
x2 = 0.1017 | – | – | 1.4266 ± 0.00032
x2 = 0.2001 | 0.987 ± 0.028 kJ/mol | 823.29 ± 0.35 kg/m3 | –
x2 = 0.2045 | – | – | 1.42351 ± 0.00032
x2 = 0.3019 | 1.31 ± 0.036 kJ/mol | 820.27 ± 0.35 kg/m3 | –
x2 = 0.397 | – | – | 1.41723 ± 0.00032
x2 = 0.4014 | 1.51 ± 0.041 kJ/mol | 817.23 ± 0.36 kg/m3 | –
x2 = 0.5009 | 1.59 ± 0.043 kJ/mol | 813.99 ± 0.37 kg/m3 | –
x2 = 0.6018 | 1.55 ± 0.042 kJ/mol | 810.67 ± 0.37 kg/m3 | –
x2 = 0.605 | – | – | 1.41 ± 0.00033
x2 = 0.7019 | 1.38 ± 0.038 kJ/mol | 807.13 ± 0.37 kg/m3 | –
x2 = 0.7986 | – | – | 1.40249 ± 0.00033
x2 = 0.8009 | 1.08 kJ/mol and 1.07 kJ/mol | 803.8 ± 0.37 kg/m3 and 803.62 ± 0.37 kg/m3 | –
x2 = 0.9004 | 0.622 ± 0.019 kJ/mol | 800.06 ± 0.35 kg/m3 | –
x2 = 0.9051 | – | – | 1.39848 ± 0.00033
x2 = 0.9491 | – | – | 1.39587 ± 0.00033

CC(=O)CC(C)C [4-methylpentan-2-one] + CCC(C)(C)O
Conditions | refractive index
[4], x1 = 1 | 1.39352 ± 0.00033

CC(=O)CC(C)C [4-methylpentan-2-one]
Conditions | mass density [kg/m3] | refractive index | vapor or sublimation pressure [kPa]
[1], 297.84 K | 796.4 ± 0.4 | – | –
[1], 340.18 K | – | – | 19.35 ± 0.2
[1], 340.66 K | – | – | 19.78 ± 0.2
[1], 343.42 K | – | – | 21.92 ± 0.21
[1], 351.55 K | – | – | 30.01 ± 0.21
[1], 352.71 K | – | – | 31.12 ± 0.23
[1], 353.11 K | – | – | 31.71 ± 0.31
[1], 359.22 K | – | – | 39.35 ± 0.18
[1], 359.39 K | – | – | 39.63 ± 0.21
[1], 359.58 K | – | – | 40.05 ± 0.24
[1], 362.88 K | – | – | 44.7 ± 0.17
[1], 365.9 K | – | – | 49.68 ± 0.16
[1], 366.61 K | – | – | 50.66 ± 0.18
[1], 368.06 K | – | – | 53.01 ± 0.27
[1], 368.07 K | – | – | 53.42 ± 0.24
[1], 368.14 K | – | – | 53.26 ± 0.32
[1], 368.15 K | – | – | 53.24 ± 0.27
[1], 368.7 K | – | – | 54.29 ± 0.21
[1], 371.34 K | – | – | 59.43 ± 0.14
[1], 371.64 K | – | – | 59.75 ± 0.16
[1], 371.91 K | – | – | 60.19 ± 0.18
[1], 374.37 K | – | – | 65.18 ± 0.22
[1], 376.26 K | – | – | 69.16 ± 0.37
[1], 376.49 K | – | – | 69.98 ± 0.37
[1], 378.8 K | – | – | 74.83 ± 0.25
[1], 380.65 K | – | – | 79.56 ± 0.17
[1], 381.06 K | – | – | 80.16 ± 0.25
[1], 382.66 K | – | – | 84.16 ± 0.28
[1], 384.99 K | – | – | 90.58 ± 0.29
[1], 388.07 K | – | – | 98.7 ± 0.66
[1], 388.31 K | – | – | 99.4 ± 0.31
[1], 388.63 K | – | – | 100.35 ± 0.34
[1], 388.65 K | – | – | 100.41 ± 0.34
[1], 389.06 K | – | – | 101.85 ± 0.3
[1], 389.49 K | – | – | 102.78 ± 0.24
[2], 297.84 K | – | 1.3935 ± 0.0003 | –
[2], 298.15 K | – | 1.39346 ± 0.00033 and 1.39352 ± 0.00033 | –

CCC(C)O (centres undefined) [butan-2-ol] + CC(=O)CC(C)C
Conditions | refractive index
[4], x2 = 0 | 1.39512 ± 0.00033

CCCCC(CC)CO (centres undefined) [2-ethyl-1-hexanol]
Conditions | mass density [kg/m3] | refractive index | vapor or sublimation pressure [kPa]
[1], 297.86 K | 828.8 ± 0.3 | – | –
[1], 389.76 K | – | – | 9.88 ± 0.24
[1], 407.11 K | – | – | 19.88 ± 0.29
[1], 418.24 K | – | – | 30.03 ± 0.41
[1], 426.95 K | – | – | 39.67 ± 0.25
[1], 430.79 K | – | – | 45.05 ± 0.3
[1], 433.51 K | – | – | 49.22 ± 0.34
[1], 437.24 K | – | – | 55.52 ± 0.19
[1], 439.49 K | – | – | 59.61 ± 0.21
[1], 442.12 K | – | – | 64.64 ± 0.22
[1], 445 K | – | – | 70.55 ± 0.23
[1], 447.04 K | – | – | 75.01 ± 0.24
[1], 449.02 K | – | – | 79.55 ± 0.25
[1], 451.06 K | – | – | 84.49 ± 0.27
[1], 456.77 K | – | – | 99.44 ± 0.28
[1], 457.83 K | – | – | 102.2 ± 0.26
[1], 458.23 K | – | – | 102.91 ± 0.2
[1], 458.24 K | – | – | 103.26 ± 0.27
[2], 297.86 K | – | 1.4295 ± 0.0003 | –
[2], 298.15 K | – | 1.42949 ± 0.00032 | –

CCC(C)(C)O [2-methylbutan-2-ol] + CC(=O)CC(C)C
Conditions | excess molar enthalpy, [5] [kJ/mol] | mass density, [3] | refractive index, [4]
x2 = 0 | – | – | 1.40253 ± 0.00037
x2 = 0.0598 | – | – | 1.40217 ± 0.00037
x2 = 0.1012 | 0.442 ± 0.013 | 804.47 ± 0.38 kg/m3 | –
x2 = 0.1216 | – | – | 1.40156 ± 0.00036
x2 = 0.2017 | 0.818 ± 0.023 | 803 ± 0.38 kg/m3 | –
x2 = 0.2171 | – | – | 1.40043 ± 0.00036
x2 = 0.3013 | 1.1 ± 0.03 | 801.45 ± 0.37 kg/m3 | –
x2 = 0.4017 | 1.28 | 800.01 ± 0.37 kg/m3 and 800 ± 0.37 kg/m3 | –
x2 = 0.4095 | – | – | 1.39811 ± 0.00035
x2 = 0.5008 | 1.37 ± 0.037 | 798.73 ± 0.36 kg/m3 | –
x2 = 0.5982 | – | – | 1.39615 ± 0.00034
x2 = 0.6006 | 1.34 ± 0.036 | 797.67 ± 0.36 kg/m3 | –
x2 = 0.7009 | 1.21 ± 0.033 | 796.87 ± 0.36 kg/m3 | –
x2 = 0.8017 | 0.948 ± 0.026 | 796.33 ± 0.35 kg/m3 | –
x2 = 0.8202 | – | – | 1.39439 ± 0.00033
x2 = 0.9007 | 0.551 ± 0.015 | 796.12 ± 0.35 kg/m3 | –
x2 = 0.9177 | – | – | 1.39383 ± 0.00033
x2 = 0.9563 | – | – | 1.39364 ± 0.00033

CC(=O)CC(C)C [4-methylpentan-2-one] + CCC(C)O
Conditions | excess molar enthalpy, [5] [kJ/mol] | mass density, [3] | refractive index, [4]
x1 = 0.0502 | – | – | 1.39473 ± 0.00033
x1 = 0.1005 | – | – | 1.39443 ± 0.00033
x1 = 0.1009 | 0.675 ± 0.019 | 800.64 ± 0.35 kg/m3 | –
x1 = 0.2005 | – | – | 1.39392 ± 0.00033
x1 = 0.2009 | 1.14 ± 0.031 | 799.14 ± 0.35 kg/m3 | –
x1 = 0.3007 | 1.44 ± 0.039 | 798.02 ± 0.35 kg/m3 | –
x1 = 0.3998 | – | – | 1.39335 ± 0.00033
x1 = 0.4015 | 1.61 | 797.16 ± 0.35 kg/m3 and 797.13 ± 0.35 kg/m3 | –
x1 = 0.5008 | 1.66 ± 0.045 | 796.55 ± 0.35 kg/m3 | –
x1 = 0.602 | – | – | 1.39309 ± 0.00033
x1 = 0.6021 | 1.59 ± 0.043 | 796.12 ± 0.35 kg/m3 | –
x1 = 0.7004 | 1.41 ± 0.038 | 795.9 ± 0.35 kg/m3 | –
x1 = 0.7988 | – | – | 1.39313 ± 0.00033
x1 = 0.7998 | 1.1 ± 0.03 | 795.84 ± 0.35 kg/m3 | –
x1 = 0.8985 | – | – | 1.39325 ± 0.00033
x1 = 0.8998 | 0.648 ± 0.018 | 795.97 ± 0.35 kg/m3 | –
x1 = 0.9508 | – | – | 1.39335 ± 0.00033
x1 = 1 | – | – | 1.39346 ± 0.00033

CC(=O)CC(C)C [4-methylpentan-2-one] + CCCCC(CC)CO
Conditions | refractive index
[4], x1 = 1 | 1.39346 ± 0.00033

CCC(C)(C)O [2-methylbutan-2-ol]
Conditions | mass density [kg/m3] | refractive index | vapor or sublimation pressure [kPa]
[1], 297.85 K | 805.3 ± 0.4 | – | –
[1], 336.04 K | – | – | 19.84 ± 0.25
[1], 344.75 K | – | – | 29.94 ± 0.28
[1], 351.29 K | – | – | 39.96 ± 0.35
[1], 356.6 K | – | – | 49.95 ± 0.42
[1], 361.18 K | – | – | 60.05 ± 0.48
[1], 365.4 K | – | – | 70.74 ± 0.53
[1], 368.07 K | – | – | 78.27 ± 0.54
[1], 368.16 K | – | – | 78.09 ± 0.37
[1], 368.75 K | – | – | 80.2 ± 0.38
[1], 371.97 K | – | – | 90.23 ± 0.34
[1], 375.14 K | – | – | 100.74 ± 0.49
[1], 375.38 K | – | – | 101.88 ± 0.5
[1], 375.53 K | – | – | 102.61 ± 0.5
[2], 297.85 K | – | 1.4025 ± 0.0004 | –
[2], 298.15 K | – | 1.40253 ± 0.00037 | –
